# Experimental data from patent US5886027A, “Fungicidal compounds” (BTG International Limited, priority 1995, dated 1999).
# Key:
# [1] = test system: Erysiphe graminis f.sp hordei; parameters: species or system Erysiphe graminis f.sp hordei (barley powdery mildew); conditions: in vivo
# [2] = test system: Pseudocercosporella herpotrichoides; test: Further in vitro assay, W-type and R-type isolates of Pseudocercosporella herpotrichoides; format: cell-based
# [3] = test system: Rhizoctonia solani; test: microbe, parasite or virus in culture; format: cell-based
# [4] = test system: Pyricularia oryzae; test: microbe, parasite or virus in culture; format: cell-based
# [5] = test system: Pseudocercosporella herpotrichoides; test: microbe, parasite or virus in culture; format: cell-based, Pseudocercosporella herpotrichoides (eyespot)
# [6] = test system: Fusarium graminearum; test: microbe, parasite or virus in culture; format: cell-based
# [7] = test system: Botrytis cinerea; test: microbe, parasite or virus in culture; format: cell-based, Botrytis cinerea (grey mould)
# [8] = Jacobsen and Wengel, Pestic. Sci., 1986, 17, 686-690; cited from earlier work
# [9] = test system: Neurospora crassa; test: microbe, parasite or virus in culture; format: cell-based
# [10] = test system: 14 day old seedlings; test: Phytotoxic effects on sprayed 14 day old seedlings; format: in vivo, barley; conditions: dosage levels below those currently used for triazole fungicides
# [11] = test system: Rhynchosporium secalis; format: cell-based, Rhynchosporium secalis (barley leaf blotch)
# [12] = test system: Fusarium sulphureum; test: Further in vitro assay, isolates of Fusarium sulphureum; format: cell-based; conditions: F. sulphureum, Table 2(f)
# [13] = test system: Helminthosporium solani; test: Further in vitro assay, isolates of Helminthosporium solani; format: cell-based; conditions: H. solani, Table 2(e)
# [14] = test system: Aspergillus niger; test: microbe, parasite or virus in culture; format: cell-based
# [15] = test system: Septoria tritici; test: microbe, parasite or virus in culture; format: cell-based, Septoria tritici (wheat leaf blotch)
# [16] = test system: Ustilago maydis; test: microbe, parasite or virus in culture; format: cell-based, Ustilago maydis (maize smut)
# [17] = Rhizoctonia solani, read-out: % inhibition of growth in colony diameter
# [18] = read-out: % inhibition of growth in colony diameter
# [19] = Aspergillus niger, read-out: % inhibition of growth in colony diameter
smiles,measurement,setting,value
CC(C)(C)C(O)C(Oc1ccc(Cl)cc1)n1cncn1 (stereo not drawn) [Triadimenol],Sensitivity of isolate (S/R),[1],S and R
"COC(=O)Nc1nc2ccccc2[nH]1 [Carbendazim, reference compound]",Sensitivity to Carbendazim,[2]; R-type isolate (first line),Sensitive
same,Sensitivity to Carbendazim,[2]; R-type isolate (second line),Resistant
same,Sensitivity to Carbendazim,[2]; W-type isolate (first line),Sensitive
same,Sensitivity to Carbendazim,[2]; W-type isolate (second line),Resistant
same,inhibition at 1 µg/mL,[3]; [17],3.3%
same,inhibition at 4 µg/mL,[3]; [17],81.2%
same,inhibition at 1 µg/mL,[4]; [18],14.7%
same,inhibition at 4 µg/mL,[4]; [18],99.4%
c1ccc2[nH]cnc2c1 [Benzimidazole],Sensitivity (R),[5],R
same,Sensitivity (R),[6]; isolate JF18,R
same,Sensitivity (S/R),[7],R and S
CC(C)c1cc2c(o1)C(=O)c1ccccc1C2=O [(A)],fungicidal activity,[8],inactive
CC1OC2=C(C(=O)C(=O)c3ccccc32)C1(C)C (stereo not drawn) [dunnione],anti-fungal activity (in words),[9],Significant activity
same,IC50,"[9]; Neurospora crassa, read-out: ED50",2 mg/L
same,phytotoxic effects,[10],no noticeable phytotoxic effects
same,fungicidal activity (in words),[2]; Pseudocercosporella herpotrichoides,inconsistent
same,cross-resistance with carbendazim,[2]; Table 2(d),no evidence of cross-resistance
same,IC50,"[5]; Oculimacula yallundae, read-out: Sensitivity ED50",17 mg/L
same,anti-fungal activity (in words),[11],active
same,level of activity compared with azole fungicides currently in use,[11],"similar, or better"
same,cross-resistance with thiabendazole,[12],no evidence of cross-resistance
same,anti-fungal activity (in words),[6]; Fusarium graminearum,some activity
same,IC50,"[6]; Fusarium graminearum, read-out: Sensitivity ED50",20 mg/L
same,fungicidal activity (in words),[3],active
same,inhibition at 4 µg/mL,[3]; [17],37%
same,inhibition at 20 µg/mL,[3]; [17],93%
same,inhibition at 100 µg/mL,[3]; [17],100%
same,cross-resistance with thiabendazole,[13],no evidence of cross-resistance
same,fungicidal activity (in words),[14],active
same,inhibition at 4 µg/mL,[14]; [19],30%
same,inhibition at 20 µg/mL,[14]; [19],99%
same,inhibition at 100 µg/mL,[14]; [19],100%
same,anti-fungal activity (in words),[7],some activity
same,IC50,"[7]; Botrytis cinerea, read-out: Sensitivity ED50",> 20 mg/L
same,anti-fungal activity (in words),[15],active
same,level of activity compared with azole fungicides currently in use,[15],"similar, or better"
same,MIC,"[15]; Zymoseptoria tritici, read-out: Sensitivity MIC",5 mg/L
same,anti-fungal activity (in words),[16],active
same,level of activity compared with azole fungicides currently in use,[16],"similar, or better"
same,IC50,"[16]; Mycosarcoma maydis, ATCC14826, read-out: ED50",3 mg/L
same,fungicidal effect (in words),[1],fungicidally effective
same,fungicidal activity (in words),[4],active
same,inhibition at 4 µg/mL,[4]; [18],75%
same,inhibition at 20 µg/mL,[4]; [18],99%
same,inhibition at 100 µg/mL,[4]; [18],100%
CCC1(CC)CC2=C(O1)C(=O)c1ccccc1C2=O [(B)],fungicidal activity,[8],intermediate fungicidal activity
"CCCN(CCOc1c(Cl)cc(Cl)cc1Cl)C(=O)n1ccnc1 [Prochloraz, reference compound]",inhibition at 1 µg/mL,"[14]; Aspergillus niger, 1 mg/l, read-out: % inhibition of growth in colony diameter",97.1%
